Assay [1] deals with MCF-7 (breast cancer cell). The experiment in a line: MTT antiproliferative assay (cell growth %, GI50), MCF-7. The format is cell-based. To be noted: Homo sapiens, MCF7, 48 hours, MTT; for activity at 4000 µg/mL: 4 mg/ml; for activity at 20000 µg/mL: 20 mg/ml. On the procedure: (§1) Antiproliferative activities of the compounds of this invention were evaluated substantially according to the method as described in Tseng, C. […] The cells were treated with the test compounds, i.e., the compounds of this invention (in dimethylsulfoxide (DMSO)), or DMSO for 48 hours.
(§2) Before and after the treatment with the test compounds or DMSO, 3-(4,5-dimethylthiazol-2-yl)-2,5-diphenyltetrazolium bromide (MTT, 2 mg/mL, 100 μL) was added to each of the cultures, followed by cultivation for 2 hours. The resultant formazan was dissolved by the addition of DMSO. Absorbance at 570 nm (OD570) was measured using a microtiter plate reader (Dynex MRX-II).
(§3) Determination of GI50 was conducted thrice for each test compound. GI50 is expressed as mean±SD.
On the technique in general: Formazan colour is commonly taken as a measure of viable cells.

Assay [2] deals with NCI-H460 (non-small cell lung carcinoma cell). Put plainly: MTT antiproliferative assay (cell growth %, GI50), NCI-H460. The format is cell-based. As to conditions: Homo sapiens, NCI-H460, 48 hours, MTT; for activity at 4000 µg/mL: 4 mg/ml; for activity at 20000 µg/mL: 20 mg/ml. On the procedure: as §1, §2, §3

These results are taken from US8952033B2, “4-anilinofuro[2,3-b]quinoline derivatives, their preparation processes, and pharmaceutical compositions comprising the same” (Kaohsiung Medical University, priority 2011, dated 2015).

As to `C/C(=N\OCCN(C)C)c1ccc(Nc2c3ccccc3nc3occc23)cc1` [Compound 13b, (E)-1-(4-(Furo[2,3-b]quinolin-4-ylamino)phenyl)ethanone O-2-(dimethylamino)ethyl oxime], the activity at 4000 µg/mL in assay [1] stood at 59%; in assay [2], 94%. Further, the activity at 20000 µg/mL in assay [1] and in assay [2] was 0% in each case.
`C/C(=N\OCCCN(C)C)c1ccc(Nc2c3ccccc3nc3occc23)cc1` [Compound 13d, (E)-1-(4-(Furo[2,3-b]quinolin-4-ylamino)phenyl)ethanone O-3-(dimethylamino)propyl oxime]: the values for the activity at 4000 µg/mL in assay [1] and in assay [2] were 84% and 52%, respectively. Besides, the activity at 20000 µg/mL in assay [1] stood at 22%; in assay [2] it was 7%.
`C/C(=N\OCCN1CCCC1)c1ccc(Nc2c3ccccc3nc3occc23)cc1` [Compound 13e, (E)-1-(4-(Furo[2,3-b]quinolin-4-ylamino)phenyl)ethanone O-2-(pyrrolidin-1-yl)ethyl oxime]: in assay [1], the activity at 4000 µg/mL was 64% and the activity at 20000 µg/mL worked out at 6%. In assay [2], the activity at 4000 µg/mL stood at 54% and the activity at 20000 µg/mL is 1%.
The like results for `C/C(=N\OCCN1CCCCC1)c1ccc(Nc2c3ccccc3nc3occc23)cc1` [Compound 13f, (E)-1-(4-(Furo[2,3-b]quinolin-4-ylamino)phenyl)ethanone O-2-(piperidin-1-yl)ethyl oxime] were, in that order, 114%, 3%, 99% and -1%.
Regarding `C/C(=N\OCCN1CCOCC1)c1ccc(Nc2c3ccccc3nc3occc23)cc1` [Compound 13g, (E)-1-(4-(Furo[2,3-b]quinolin-4-ylamino)phenyl)ethanone O-2-morpholinoethyl oxime], the activity at 4000 µg/mL stood at 120% in assay [1] and 108% in assay [2]. In addition, the activity at 20000 µg/mL came to 56% in assay [1] and 23% in assay [2].
With `C/C(=N\OCCCCN1CCOCC1)c1ccc(Nc2c3ccccc3nc3occc23)cc1` [Compound 13h, (E)-1-(4-(Furo[2,3-b]quinolin-4-ylamino)phenyl)ethanone O-4-morpholinobutyl oxime], in assay [1], the activity at 4000 µg/mL came out at 76% and the activity at 20000 µg/mL is -2%. Further, in assay [2], the activity at 4000 µg/mL stood at 118% and the activity at 20000 µg/mL was -1%.
The like results for `C/C(=N\OCCN(C)C)c1ccc(Nc2c3ccccc3nc3occ(Cl)c23)cc1` [Compound 14b, (E)-1-(4-(3-Chlorofuro[2,3-b]quinolin-4-ylamino)phenyl)ethanone O-2-(dimethylamino)ethyl oxime] were, in that order, 70%, -3%, 68% and -1%.
As for `C/C(=N\OCCCN(C)C)c1ccc(Nc2c3ccccc3nc3occ(Cl)c23)cc1` [Compound 14d, (E)-1-(4-(3-Chlorofuro[2,3-b]quinolin-4-ylamino)phenyl)ethanone O-3-(dimethylamino)propyl oxime], in assay [1], the activity at 4000 µg/mL was 61% and the activity at 20000 µg/mL was 1%. In addition, in assay [2], the activity at 4000 µg/mL was 52% and the activity at 20000 µg/mL was 1%.
Consider `C/C(=N\OCCN1CCCC1)c1ccc(Nc2c3ccccc3nc3occ(Cl)c23)cc1` [Compound 14e, (E)-1-(4-(3-Chlorofuro[2,3-b]quinolin-4-ylamino)phenyl)ethanone O-2-(pyrrolidin-1-yl)ethyl oxime], for which, in assay [1], the activity at 4000 µg/mL amounted to 86% and the activity at 20000 µg/mL is -2%. Further, in assay [2], the activity at 4000 µg/mL is 69% and the activity at 20000 µg/mL was -1%.
As to `C/C(=N\OCCN1CCCCC1)c1ccc(Nc2c3ccccc3nc3occ(Cl)c23)cc1` [Compound 14f, (E)-1-(4-(3-Chlorofuro[2,3-b]quinolin-4-ylamino)phenyl)ethanone O-2-(piperidin-1-yl)ethyl oxime], in assay [1], the activity at 4000 µg/mL was found to be 121% and the activity at 20000 µg/mL was 26%. Also, in assay [2], the activity at 4000 µg/mL was found to be 101% and the activity at 20000 µg/mL was determined as 3%.
For `C/C(=N\OCCN1CCOCC1)c1ccc(Nc2c3ccccc3nc3occ(Cl)c23)cc1` [Compound 14g, (E)-1-(4-(3-Chlorofuro[2,3-b]quinolin-4-ylamino)phenyl)ethanone O-2-morpholinoethyl oxime] the same measures were 112%, 54%, 107% and 16%.
Consider `C/C(=N\OCCCCN1CCOCC1)c1ccc(Nc2c3ccccc3nc3occ(Cl)c23)cc1` [Compound 14h, (E)-1-(4-(3-Chlorofuro[2,3-b]quinolin-4-ylamino)phenyl)ethanone O-4-morpholinobutyl oxime], for which, in assay [1], the activity at 4000 µg/mL amounted to 75% and the activity at 20000 µg/mL was -3%. Moreover, in assay [2], the activity at 4000 µg/mL turned out to be 91% and the activity at 20000 µg/mL was 3%.
For the molecule `COc1ccc2c(Nc3ccc(/C(C)=N/OCCN(C)C)cc3)c3ccoc3nc2c1` [Compound 15b, (E)-1-(4-(7-Methoxyfuro[2,3-b]quinolin-4-ylamino)phenyl)ethanone O-2-(dimethylamino)ethyl oxime], in assay [1], the activity at 4000 µg/mL was determined as 67% and the activity at 20000 µg/mL was -1%. In assay [2], the activity at 4000 µg/mL is 75% and the activity at 20000 µg/mL is -1%.
As to `COc1ccc2c(Nc3ccc(/C(C)=N/OCCCN)cc3)c3ccoc3nc2c1` [Compound 15c, (E)-1-(4-(7-Methoxyfuro[2,3-b]quinolin-4-ylamino)phenyl)ethanone O-3-aminopropyl oxime], in assay [1], the activity at 4000 µg/mL came out at 100% and the activity at 20000 µg/mL stood at 18%. In assay [2], the activity at 4000 µg/mL was 105% and the activity at 20000 µg/mL was 16%.
For the molecule `COc1ccc2c(Nc3ccc(/C(C)=N/OCCCN(C)C)cc3)c3ccoc3nc2c1` [Compound 15d, (E)-1-(4-(7-Methoxyfuro[2,3-b]quinolin-4-ylamino)phenyl)ethanone O-3-(dimethylamino)propyl oxime], in assay [1], the activity at 4000 µg/mL worked out at 59% and the activity at 20000 µg/mL came to 2%. Besides, in assay [2], the activity at 4000 µg/mL came out at 82% and the activity at 20000 µg/mL came to 5%.
Regarding `COc1ccc2c(Nc3ccc(/C(C)=N/OCCN4CCCC4)cc3)c3ccoc3nc2c1` [Compound 15e, (E)-1-(4-(7-Methoxyfuro[2,3-b]quinolin-4-ylamino)phenyl)ethanone O-2-(pyrrolidin-1-yl)ethyl oxime], in assay [1], the activity at 4000 µg/mL amounted to 63% and the activity at 20000 µg/mL turned out to be 3%. Further, in assay [2], the activity at 4000 µg/mL stood at 69% and the activity at 20000 µg/mL came to 5%.
As for `COc1ccc2c(Nc3ccc(/C(C)=N/OCCN4CCCCC4)cc3)c3ccoc3nc2c1` [Compound 15f, (E)-1-(4-(7-Methoxyfuro[2,3-b]quinolin-4-ylamino)phenyl)ethanone O-2-(piperidin-1-yl)ethyl oxime], in assay [1], the activity at 4000 µg/mL was 77% and the activity at 20000 µg/mL was 2%. In assay [2], the activity at 4000 µg/mL was determined as 84% and the activity at 20000 µg/mL stood at 9%.
Consider `COc1ccc2c(Nc3ccc(/C(C)=N/OCCN4CCOCC4)cc3)c3ccoc3nc2c1` [Compound 15g, (E)-1-(4-(7-Methoxyfuro[2,3-b]quinolin-4-ylamino)phenyl)ethanone O-2-morpholinoethyl oxime], for which, in assay [1], the activity at 4000 µg/mL stood at 76% and the activity at 20000 µg/mL was found to be 25%. For the same molecule, in assay [2], the activity at 4000 µg/mL was found to be 96% and the activity at 20000 µg/mL stood at 44%.
`COc1ccc2c(Nc3ccc(/C(C)=N/OCCCCN4CCOCC4)cc3)c3ccoc3nc2c1` [Compound 15h, (E)-1-(4-(7-Methoxyfuro[2,3-b]quinolin-4-ylamino)phenyl)ethanone O-4-morpholinobutyl oxime]: in assay [1], the activity at 4000 µg/mL turned out to be 83% and the activity at 20000 µg/mL was found to be 75%. Also, in assay [2], the activity at 4000 µg/mL is 89% and the activity at 20000 µg/mL is 21%.
Regarding `COc1ccc2c(Nc3ccc(/C(C)=N/OCCCN)cc3)c3c(Cl)coc3nc2c1` [Compound 16c, (E)-1-(4-(3-Chloro-7-methoxyfuro[2,3-b]quinolin-4-ylamino)phenyl)ethanone O-3-aminopropyl oxime], the activity at 4000 µg/mL came to 101% in assay [1] and 91% in assay [2]. The activity at 20000 µg/mL was 3% in assay [1] and 8% in assay [2].
`COc1ccc2c(Nc3ccc(/C(C)=N/OCCN4CCCC4)cc3)c3c(Cl)coc3nc2c1` [Compound 16e, (E)-1-(4-(3-Chloro-7-methoxyfuro[2,3-b]quinolin-4-ylamino)phenyl)ethanone O-2-(pyrrolidin-1-yl)ethyl oxime]: in assay [1], the activity at 4000 µg/mL was found to be 55% and the activity at 20000 µg/mL was 1%. In assay [2], the activity at 4000 µg/mL is 53% and the activity at 20000 µg/mL is 5%.
Regarding `COc1ccc2c(Nc3ccc(/C(C)=N/OCCN4CCCCC4)cc3)c3c(Cl)coc3nc2c1` [Compound 16f, (E)-1-(4-(3-Chloro-7-methoxyfuro[2,3-b]quinolin-4-ylamino)phenyl)ethanone O-2-(piperidin-1-yl)ethyl oxime], in assay [1], the activity at 4000 µg/mL was 56% and the activity at 20000 µg/mL was -1%. Moreover, in assay [2], the activity at 4000 µg/mL is 67% and the activity at 20000 µg/mL was found to be 3%.
